Results as given in patent US11767314B2, “Bioenergetic nicotinic acid glycerol esters, compositions and methods of using same” (Conopco, Inc., priority 2018, dated 2023).
Entries after “also recorded” stand apart in the source; their conditions may differ.

System: Human dermal fibroblasts F5140616B1
Experiment: Effect of NAEs on AMP/ATP Ratio in Fibroblast Cells (metabolites by LC/MS)
Format: cell-based
Parameters: AMP/ATP Ratio: scale not given here
Conditions: for AMP/ATP Ratio / Increase Over Vehicle (AMP/ATP ratio): 500 uM, fibroblasts treated every other day for 6 days; for AMP/ATP Ratio: vehicle (ethanol) 367; for Increase Over Vehicle (AMP/ATP ratio): vs ethanol vehicle; for AMP/ATP ratio, result in words: fibroblast cells, 500 uM where stated
Protocol: The experiments in this Example 2 were conducted in the following manner.
Method for Treatment of Fibroblasts with Bioenergetic Compounds
Human dermal fibroblasts F5140616B1 (MatTek Corporation, Ashland, Mass.) were derived from a donor and cultured in DMEM media (ThermoFisher Cat #31053-036) supplemented with FBS (Hyclone/Fisher Scientific Cat #SH30007103), glutamine (ThermoFisher Cat #35050-61) and sodium pyruvate (ThermoFisher Cat #11360-070). At the third passage, the cells were detached from the culture vessels using Trypsin/EDTA (T/E) solution (0.25 mg/mL) (Lonza Cat #CC-5012) and used for experimentation.
Cells were treated with the compounds every other day for a total of 6 days. Treatment involved removal of the spent media+compounds and replenishment with fresh media+compounds. At the end of the experiment, the cells were detached from the culture vessels using the standard procedure outlined above. The cells were centrifuged and then washed 1× with Dulbecco's PBS with no calcium or magnesium (ThermoFisher Cat #14190144) and then accurate cell counts were taken using a Scepter cell counter (EMD Millipore). The cells were then split equally into 2 Eppendorf tubes, and centrifuged. Excess PBS was then removed from the resulting cell pellets. The pellets were then immediately frozen on dry ice and sent to an external laboratory for analysis of metabolites by LC/MS.

Structure (SMILES) | AMP/ATP Ratio | Increase Over Vehicle (AMP/ATP ratio) [%] | AMP/ATP ratio, result in words
CC(=O)O[C@@H]1[C@@H](CO)OC([n+]2cccc(C(N)=O)c2)[C@@H]1OC(C)=O.O=S(=O)([O-])C(F)(F)F (stereo partly drawn) [JR1, 3-carbamoyl-1-((3R,4R,5R)-3,4-diacetoxy-5-(hydroxymethyl)tetrahydrofuran-2-yl)pyridin-1-ium trifluoromethanesulfonate] | 756 | 106 | 
CCCC(=O)O[C@@H]1[C@@H](CO)OC([n+]2cccc(C(N)=O)c2)[C@@H]1OC(=O)CCC.O=S(=O)([O-])C(F)(F)F (stereo partly drawn) [JR2, 1-((3R,4R,5R)-3,4-bis(butyryloxy)-5-(hydroxymethyl)tetrahydrofuran-2-yl)-3-carbamoylpyridin-1-ium trifluoromethanesulfonate] | 919 | 150 | 
CC(=O)O[C@@H]1[C@@H](CO)OC(N2C=CCC(C(N)=O)=C2)[C@@H]1OC(C)=O (stereo partly drawn) [JR3, (3R,4R,5R)-2-(3-carbamoylpyridin-1(4H)-yl)-5-(hydroxymethyl) tetrahydrofuran-3,4-diyl diacetate] | 1231 | 235 | 
NC(=O)c1cccnc1 [Nicotinamide, reference compound] | 529 | 44 | somewhat elevated levels of AMP/ATP ratio over control vehicle
CC1(C)OCC(COC(=O)c2cccnc2)O1 (stereo not shown) [VC1, (2,2-dimethyl-1,3-dioxolan-4-yl)methyl nicotinate] | 1010 | 175 | increased AMP/ATP ratio in testing; also recorded: notably increase the AMP/ATP ratio; also recorded: significantly elevated levels of AMP/ATP ratio over both, control vehicle and nicotinamide; also recorded: increase in the levels of AMP/ATP ratio; also recorded: demonstrably increased AMP/ATP ratio
O=C(OCC(O)CO)c1cccnc1 (stereo not shown) [VC2, 2,3-dihydroxypropyl nicotinate] |  |  | increased AMP/ATP ratio in testing; also recorded: notably increase the AMP/ATP ratio; also recorded: increase in the levels of AMP/ATP ratio; also recorded: demonstrably increased AMP/ATP ratio
CC1(C)OCC(OC(=O)c2cccnc2)CO1 [VC4, 2,2-dimethyl-1,3-dioxan-5-yl nicotinate] | 941 | 156 | increased AMP/ATP ratio in testing; also recorded: notably increase the AMP/ATP ratio; also recorded: significantly elevated levels of AMP/ATP ratio over both, control vehicle and nicotinamide; also recorded: demonstrably increased AMP/ATP ratio
